Measured values: patent publication US6562853B2, “2,5-dioxo-3-(2-propynyl)imidazolidin-1-ylmethyl 2,2-dimethyl-3-(alenyl) cyclopropane carboxylate compounds and pesticidal methods and compositions utilizing the same” (Sumitomo Chemical Company, Limited, priority 2001, dated 2003)

Legend:
[1] = system: adult female common mosquitoes; assay: Knockdown of common mosquitoes by oily formulation sprayed into 70 cm cubic chamber (Test Example 3); format: in vivo, common mosquito (Culex pipiens pallens); conditions: 0.00625% oily formulation, 0.7 ml sprayed into 70 cm cubic chamber; 10 adult female common mosquitoes; counted over 10 minutes
Source text: Three (3) 0.00625% oily formulations were produced with the following pesticidal compounds: […]
In the compound encompassed by formula (A), the weight ratio of trans isomers thereof to the cis isomers thereof is 8:2. The 0.00625% oily formulations were produced by dissolving, respectively, 0.00625 parts of the above pesticidal compounds in 10 parts of dichloromethane and by mixing each of the resulting mixture with 89.99375 parts of deodorized kerosene.
Ten (10) adult female common mosquitoes were released in each of the cubic chambers having a side length of 70 cm. Seven-tenths milliliters (0.7 ml) of the 0.00625% oily formulations were then sprayed, respectively, into each of the chambers from the side windows of the chambers, utilizing spray guns set to a pressure of 8.8×10^4 Pa. The numbers of knockdowned common mosquitoes were counted periodically over 10 minutes. The times utilized to knockdown half of the tested common mosquitoes (KT50) were determined from the number of knockdowned common mosquitoes.

[2] = system: Adult houseflies; assay: Knockdown rate of houseflies in plastic cup after direct spray of oily formulation (Test Example 2); format: in vivo, housefly (Musca domestica); conditions: 0.1% oily formulation (table), 0.5 ml sprayed from about 30 cm above cup; 10 adult houseflies; counted 10 seconds thereafter
Description: A 0.1% oily formulation was produced by dissolving 0.1 part of the present invention compound 1 in 10 parts of dichloromethane and by mixing the resulting mixture with 89.9 parts of deodorized kerosene.
Ten (10) adult houseflies (5 of each male and female) were placed in a 650 ml plastic cup. The opening of the plastic cup was covered with a nylon mesh to confine the houseflies to the plastic cup. The plastic cup was placed on top of a metal screen placed in a metal chamber having the dimensions 46 cm×46 cm×70 cm. Five-tenths milliliters (0.5 ml) of the […] oily formulation was then sprayed from about 30 cm above the top area of the plastic cup, utilizing a spray gun set to a pressure of 8.8×10^4 Pa. The number of knockdowned houseflies were counted 10 seconds thereafter. The knockdown rate was determined from the number of knockdowned houseflies achieved. The knockdown rate was 95%.

[3] = system: Adult houseflies; assay: Knockdown of houseflies by oily formulation sprayed into 70 cm cubic chamber (Test Example 1); format: in vivo, housefly (Musca domestica); conditions: 0.025% oily formulation, 0.7 ml sprayed into 70 cm cubic chamber; 5 male and 5 female adult houseflies; counted over 10 minutes
Description: A 0.025% oily formulation was produced by dissolving 0.025 parts of the present invention compound 1 in 10 parts of dichloromethane and by mixing the resulting mixture with 89.975 parts of deodorized kerosene.
Adult houseflies (5 of each male and female) were released in a cubic chamber having a side length of 70 cm. Seven-tenths milliliters (0.7 ml) of the 0.025% oily formulation was then sprayed into the chamber from a side window of the chamber, utilizing a spray gun set to a pressure of 8.8×10^4 Pa. The number of knockdowned houseflies was counted periodically over 10 minutes. The time utilized to knockdown half of the tested houseflies (KT50) was determined from the number of knockdowned houseflies. The KT50 was 2.3 minutes.

Compound	KT50 (time utilized to knockdown half of the tested common mosquitoes) [1] [min]	Knockdown rate [2] [%]	KT50 (time utilized to knockdown half of the tested houseflies) [3] [min]
C#CCN1CC(=O)N(COC(=O)C2C(C=C(C)C)C2(C)C)C1=O (single isomer, unassigned) [Compound c, reference compound]	2.9		
C#CCN1CC(=O)N(COC(=O)[C@@H]2[C@@H](/C=C\C)C2(C)C)C1=O [Present invention compound 1, 2,5-dioxo-3-(2-propynyl)imidazolidin-1-ylmethyl (1R)-trans-2,2-dimethyl-3-((Z)1-propenyl)cyclopropanecarboxylate]	0.99	95	2.3
C#CCN1CC(=O)N(COC(=O)[C@@H]2[C@H](/C=C\C)C2(C)C)C1=O [Present invention compound 3, 2,5-dioxo-3-(2-propynyl)imidazolidin-1-ylmethyl (1R)-cis-2,2-dimethyl-3-((Z)1-propenyl)cyclopropanecarboxylate]	1.4		
